Experimental findings from patent EP0485091A1, “Process for the production of analogues of immunomycin” (MERCK & CO. INC., priority 1990, dated 1992) are described below.

This assay deals with T lymphocytes. The experiment in a line: T-cell proliferation assay (tritiated thymidine uptake, ionomycin + PMA stimulation; also called IL-2 assay). The format is cell-based, C57B1/6 mice. The settings on record: for IC50: Mouse T cell cultures, pulsed with 3H-thymidine for 4 hours prior to harvesting at 48 hours. The method, then:
Cells were pelleted by centrifugation at 1500 rpm for 8 minutes. Contaminating red cells were removed by treating the pellet with ammonium chloride lysing buffer (GIBCO) for 2 minutes at 4°C. Cold medium was added and cells were again centrifuged at 1500 rpm for 8 minutes. T lymphocytes were then isolated by separation of the cell suspension on nylon wool columns as follows: Nylon wool columns were prepared by packing approximately 4 grams of washed and dried nylon wool into 20 ml plastic syringes. The columns were sterilized by autoclaving at 250°F for 30 minutes. Nylon wool columns were wetted with warm (37°C) culture medium and rinsed with the same medium. Washed spleen cells resuspended in warm medium were slowly applied to the nylon wool. The columns were then incubated in an upright position at 37°C for 1 hour. Non-adherent […] were eluted from the columns with warm culture medium and the cell suspensions were spun as above.
The cell suspension was immediately distributed into 96 well flat-bottom microculture plates (Costar) at 200 µl/well. […] The proliferation of T lymphocytes was assessed by measurement of tritiated thymidine incorporation. After 44 hours of culturing, the cells were pulse-labelled with 2 µCi/well of tritiated thymidine (NEN, Cambridge, MA). After another 4 hours of incubation, cultures were harvested on glass fiber filters using a multiple sample harvester. Radioactivity of filter discs corresponding to individual wells as measured by standard liquid scintillation counting methods (Betacounter). Mean counts per minute of replicate wells were calculated and the results expressed as percent inhibition of tritiated thymidine uptake (profileration) as follows [drawing 11]
• 1. Mouse T cell cultures were pulsed with ³H-thymidine for 4 hours prior to harvesting at 48 hours. • 2.

Consider `C=CC[C@@H]1/C=C(\C)C[C@H](C)C[C@H](OC)[C@H]2O[C@@](O)(C(=O)C(=O)N3CCCC[C@H]3C(=O)O[C@H](/C(C)=C/[C@@H]3CC[C@@H](O)[C@H](OC)C3)[C@H](C)[C@@H](O)CC1=O)[C@H](C)C[C@@H]2OC` [L-679,934, reference compound], for which the inhibition at 0.01 µg/mL (Mus musculus, T-lymphocyte, 48 h, read-out: percent inhibition of tritiated thymidine uptake (proliferation)) came out at 99%.
As a reminder, the IC50 is the concentration that inhibits the measured activity by half. As to `CCC[C@@H]1/C=C(\C)C[C@H](C)C[C@H](OC)[C@H]2O[C@@](O)(C(=O)C(=O)N3CCCC[C@H]3C(=O)O[C@H](/C(C)=C/[C@@H]3CC[C@@H](O)[C@H](OC)C3)[C@H](C)[C@@H](O)CC1=O)[C@H](C)C[C@@H]2OC` [fraction 510], the “Inhibition of T-cell proliferation after addition of recombinant human IL-2” value (50 units/ml of recombinant human IL-2 added at the initiation of culture) was “reversed”. The IC50 is 0.82 ng/mL (T-lymphocyte) and 1.02 nM (T-lymphocyte, same value in molar unit).
